What is called IC50 is the concentration at which inhibition is half-maximal.

For this test, the target named is T1, human mPGES-1 (Homo sapiens, UniProt O14684).
T1 construct: expressed in transfected cells; host or cells: CHO-K1 cells, transiently transfected; microsomal fraction used
T1 sequence (O14684 1-152): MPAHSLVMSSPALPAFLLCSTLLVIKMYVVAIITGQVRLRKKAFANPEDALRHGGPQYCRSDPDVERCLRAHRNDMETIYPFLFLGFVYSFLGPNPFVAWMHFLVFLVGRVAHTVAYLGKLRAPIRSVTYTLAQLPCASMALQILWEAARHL
Description: Microsomal Prostaglandin E Synthase Assay. Format: biochemical. The note with it: microsomal fractions from CHO-K1 cells transiently transfected with human mPGES-1 cDNA; 1 μM PGH2; PGE2 by EIA; average of at least n=3; read-out: h-CHO (nM), potency expressed as IC50. As for the experimental part:
Compounds are tested as inhibitors of prostaglandin E synthase activity in microsomal prostaglandin e synthases, whole cell and in vivo assays. These assays measure prostaglandin E2 (PGE2) synthesis using either Enzymatic Immunoassay (EIA) or mass spectrometry. Cells used for microsomal preparation are CHO-K1 cells transiently transfected with plasmids encoding the human mPGES-1 cDNA. Cells used for cell-based experiments are human A549 (which express human mPGES-1). Guinea pigs are used to test the activity of selected compounds in vivo. In all these assays, 100% activity is defined as the PGE2 production in vehicle-treated samples. IC50 and ED50 represent the concentration or dose of inhibitor required to inhibit PGE2 synthesis by 50% as compared to the uninhibited control.
Prostaglandin E synthase microsomal fractions are prepared from CHO-K1 cells transiently transfected with plasmid encoding the human mPGES-1 cDNA. Microsomes are then prepared and the PGES assay begins with the incubation of 5 μg/ml microsomal PGES-1 with compound or DMSO (final 1%) for 20-30 minutes at room temperature. The enzyme reactions are performed in 200 mM KPi pH 7.0, 2 mM EDTA and 2.5 mM GSH-reduced form. The enzymatic reaction is then initiated by the addition of 1 μM final PGH2 substrate prepared in isopropanol (3.5% final in assay well) and incubated at room temperature for 30 seconds. The reaction is terminated by the addition of SnCl2 in 1N HCl (1 mg/ml final). Measurement of PGE2 production in the enzyme reaction aliquots is done by EIA using a standard commercially available kit (Cat #: 901-001 from Assay Designs).
The potency is expressed as IC50 and the value indicated is an average of at least n=3.

In the case of `N#Cc1cccc(C#N)c1-c1nc2c3ccc(Cl)cc3c3ccoc3c2[nH]1` [Example 12], the concentration for half-maximal inhibition (IC50) was found to be 3.2 nM. For `Fc1cccc(Cl)c1-c1nc2c3ccc(Cl)cc3c3cc(Br)sc3c2[nH]1` [Example 15] the value was 1.8 nM; for `Fc1cccc(Cl)c1-c1nc2c3ccccc3c3sc(Cl)cc3c2[nH]1` [Example 2], 10.5 nM; for `CC(C)(O)C#Cc1ccc2c(c1)c1c(Cl)c(Cl)sc1c1[nH]c(-c3c(C#N)cccc3C#N)nc21` [Example 28], 1.5 nM.

These data come from US20090209571A1, “Phenanthrene derivatives as MPGES-1 inhibitors” (priority 2006, published 2009).
